Assay results taken from patent US20250002954A1, “Novel Compound, Use Thereof, and Method for Producing Same, and Compound-Containing Composition, Method for Producing 4-Trehalosamine, and Microorganism” (Microbial Chemistry Research Foundation, priority 2021, published 2025).

Experiments:
[1] = tested on: trehalase derived from pig kidney; experiment: Degradation by trehalase derived from pig kidney (glucose release); type: in vitro ADME; settings: 0.01 mM to 10 mM substrate, 0.24 units/mL, pH 5.7, 37° C., 20 minutes
Method: Trehalose (TRH) or the 4-trehalosamine (4TA) from the <Purification process> of production example 10 was added to and mixed with 135 mM sodium citrate buffer solution (pH 5.7) so that the final concentration was 0 mM, 0.01 mM, 0.1 mM, 1 mM, or 10 mM. Into them, trehalase derived from pig kidney (0.24 units/mL, manufactured by Sigma-Aldrich) was added and left to react at 37° C. for 20 minutes. Into the solution after reaction, a triple amount of Glucose assay reagent (manufactured by Sigma-Aldrich) was added and left to react at room temperature for 15 minutes. After that, absorbance at 340 nm was measured with a plate reader Cytation 5 (manufactured by Bio Tek Instruments) and the amount of glucose released as degradation product was estimated. FIG. 19B is a zoomed-in view of FIG. 19A.

blood glucose level = experiment: Change in blood glucose level after oral administration to mice; type: in vivo, ICR mice; settings: single oral dose 0.5 mg per g of body weight, fasted
Method: 4-trehalosamine or trehalose dissolved in saline at 0.5 mg/10 μL per g of body weight was orally administered in a single dose to ICR mice (9-week to 10-week old, female, n=5) that had been fasted overnight. The five mice on which the same treatment had been performed were placed in the same cage.
In a 96-well plate, the centrifuged supernatant sample of dilution of blood with methanol prepared in <Determination of blood level of 4-trehalosamine> (a sample similar to the sample used in the LC-MS analysis) was placed at 5 µL/well and dried by suction with a vacuum pump. After that, it was dissolved in 25 μL of water, 75 μL of Glucose assay reagent (manufactured by Sigma-Aldrich) was added, and the solution was left to stand at 37° C. for 1 hour. Absorbance at 340 nm was then measured with a plate reader Cytation 5 (manufactured by Bio Tek Instruments) and the amount of glucose estimated.

[2] = tested on: human ovarian cancer cells OVK18 and human malignant melanoma cells Mewo; experiment: Autophagy inducing effect on cultured cells (western blotting of autophagy-related proteins); type: cell-based; settings: 24 hours treatment, western blotting
Method: Expression and phosphorylation patterns of autophagy-related proteins when human ovarian cancer cells or human malignant melanoma cells were treated with 4-trehalosamine and trehalose analog for 24 hours were determined by western blotting.
Human ovarian cancer cells OVK18 (obtained from RIKEN BRC) and human malignant melanoma cells Mewo (JCRB0066) were each inoculated on a 12-well microplate at 8×10^4 cells/mL/well and cultured in DMEM culture medium at 37° C. for 72 hours, after which they were treated with test samples.
The test samples used were the 4-trehalosamine (4TA) obtained in the <Purification process> of production example 10, trehalose (TRH), the IMCTA-Cn compounds obtained in synthesis examples 1 to 8, trehalose ester (TRH-Cn) (manufactured by Dojindo Laboratories), n-dodecyl-β-D-maltoside (DDM), maltose (MLT), sucrose (SCR), and rapamycin (RM). Untreated cells without addition of compounds were used as control.
In treatment with the test samples, in order to avoid contact of a compound with locally high concentration with cells, a half of the culture fluid in each well was taken, and a required amount of test sample was dissolved in it. After dissolving it sufficiently, it was returned to the original well and treated at 37° C. for 24 hours.
Subsequently, culture medium containing the test samples was removed, washed once with PBS, and dissolved with 2×SDS sample buffer not containing 2-mercaptoethanol (2-ME) or bromphenol blue (BPB). After measuring the protein concentration in the dissolved sample with a BCA protein assay kit (manufactured by Thermo Fisher Scientific), 2-ME and BPB were added and the sample was boiled for 5 minutes, which was used as a sample for western blotting.
The western blotting was performed in a similar manner to test example 4 except that anti-LC3 antibody, which is a marker for autophagy, anti-p62, anti-cathepsin D antibody, anti-Phospho-Akt (Ser473) antibody, anti-Akt antibody, anti-Phospho-p70 S6K (T389) antibody, and anti-p70 S6K antibody (all manufactured by Cell Signaling Technology) were used at 1/2,000 dilution as the primary antibodies in the method described in test example 4.
The results for human ovarian cancer cells OVK18 are shown in FIGS. 20A to 20C, and the results for human malignant melanoma cells Mewo are shown in FIGS. 20D to 20F. In FIGS. 20A, 20B, 20D, and 20E, “PCD” denotes precursors of cathepsin D and “CD-HC” denotes cathepsin D heavy chain.

[3] = tested on: human ovarian cancer cells OVK18 and human malignant melanoma cells Mewo; experiment: LC3-II expression in combination with autophagy inhibitor (bafilomycin or chloroquine); type: cell-based; settings: 50 mM 4-trehalosamine, 50 μM IMCTA-C14 or 100 mM trehalose 14 hours, then 200 nM BM or 100 μM CQ 4 hours
Method: As with the test example 10-1, human ovarian cancer cells OVK18 (obtained from RIKEN BRC) and human malignant melanoma cells Mewo (JCRB0066) were each inoculated on a 12-well microplate at 8×10^4 cells/mL/well, and cultured in DMEM culture medium at 37° C. for 72 hours. After that, a half of the culture fluid in each well was taken and each compound was dissolved so that the final concentration is 50 mM 4-trehalosamine, 50 μM IMCTA-C14, or 100 mM trehalose. After dissolving it sufficiently, the cells were returned to the original well and treated at 37° C. for 14 hours. Untreated cells without addition of the compounds were used as control.
After that, each autophagy inhibitor was added so that the final concentration is 200 nM bafilomycin (BM) or 100 μM chloroquine (CQ), and the cells were cultured at 37° C. for 4 hours. A group with no inhibitor added was cultured in a similar way. After culture, they were turned into samples for western blotting in a similar manner to test example 10-1.
The western blotting was performed in a similar manner to test example 4 except that anti-LC3 antibody (manufactured by Cell Signaling Technology) was used at 1/2,000 dilution as the primary antibody in the method described in test example 4. The results for human ovarian cancer cells OVK18 are shown in FIG. 21A, and the results for human malignant melanoma cells Mewo are shown in FIG. 21B.
Also, the results (graphs) of image analysis on the results of western blotting via Image J (manufactured by National Institutes of Health) are shown in FIGS. 21A and 21B (n=10, mean±S.D.). The vertical axis of the graph indicates the value of the amount of expression (expression amount ratio) of LC3-II for the groups with the different compounds added when the amount of expression of LC3-II in the control (untreated cells) is 1. […]

SMILES: N[C@H]1[C@H](O)[C@@H](O)[C@@H](O[C@H]2O[C@H](CO)[C@@H](O)[C@H](O)[C@H]2O)O[C@@H]1CO [4-trehalosamine]
- degradation by pig trehalase (release of glucose) [1]: not degraded by pig trehalase
- change in blood glucose level (blood glucose level): no elevation in the blood glucose level was observed
- expression of LC3-II (autophagy marker) [2]: elevated expression of LC3-II
- expression of LC3-II in combination with bafilomycin (BM) or chloroquine (CQ) [3]: increased expression of LC3-II

SMILES: OC[C@H]1O[C@@](CO)(O[C@H]2O[C@H](CO)[C@@H](O)[C@H](O)[C@H]2O)[C@@H](O)[C@@H]1O [sucrose]
- expression of LC3-II (autophagy marker) [2]: expression of LC3-II was also observed

SMILES: OC[C@H]1O[C@H](O[C@H]2O[C@H](CO)[C@@H](O)[C@H](O)[C@H]2O)[C@H](O)[C@@H](O)[C@@H]1O [trehalose, reference compound]
- degradation by pig trehalase (release of glucose) [1]: degraded in this reaction and release of glucose was observed
- change in blood glucose level (blood glucose level): elevation in the blood glucose level was observed 30 minutes to 1 hour after administration
- expression of LC3-II in combination with bafilomycin (BM) or chloroquine (CQ) [3]: increased expression of LC3-II
